The test system of one test is HCV genotype 1a replicon. Kind of test: HCV replicon assay, genotype 1a (cell ELISA for NS3/4A). The class given is cell-based, hepatitis C virus. To be noted: for IC50: Hepatitis C virus, 96 h, read-out: 1a IC50 (nM), genotype 1a replicon cells, 96 hours incubation, NS3/4A ELISA; for pIC50: read-out: 1a IC50, genotype 1a replicon cells, 96 hours incubation, NS3/4A ELISA. On the procedure: (§1) Measurement of inhibition by compounds was performed using the HCV replicon system. Several different replicons encoding different HCV genotypes or mutations were used. In addition, potency measurements were made using different formats of the replicon assay, including different ways of measurements and different plating formats. See Jan M. Vrolijk et al., A replicons-based bioassay for the measurement of interferons in patients with chronic hepatitis C, 110 J. VIROLOGICAL METHODS 201 (2003); Steven S. Carroll et al., Inhibition of Hepatitis C Virus RNA Replication by 2′-Modified Nucleoside Analogs, 278 (14) J. BIOLOGICAL CHEMISTRY 11979 (2003). However, the underlying principles are common to all of these determinations, and are outlined below.
(§2) Stable neomycin phosphotransferase encoding replicons-harboring cell lines were used, so all cell lines were maintained under G418 selection prior to the assay. Potency was deteremined using a cell ELISA assay with an antibody to the replicons encoded NS3/4a protease. See Caterina Trozzi et al., In Vitro Selection and Characterization of Hepatitis C Virus Serine Protease Variants Resistant to an Active-Site Peptide Inhibitor, 77 (6) J. Virol. 3669 (2003). To initiate an assay, replicon cells were plated in the presence of a dilution series of test compound in the absence of G418. Typically, the assays were performed in a 96-well plate formate for manual operation, or a 384-well plate format for automated assay. Replicon cells and compound were incubated for 96 hours. At the end of the assay, cells were washed free of media and compound, and the cells were then lysed. RNA was quantified indirectly through detection of replicon-encoded NS3/4A protein levels, through an ELISA-based assay with an antibody specific for NS3/4A. IC50 determinations were calculated as a percentage of a DMSO control by fitting the data to a four-parameter fit function and the data obtained for genotypes 1a and 1b using this method is provided in the table below.
A general note: Replicon systems follow genome replication, usually without infectious particles.

A further test relates to HCV genotype 1b replicon. The test can be described thus: HCV replicon assay, genotype 1b (cell ELISA for NS3/4A). The conditions noted are these: for IC50: Hepatitis C virus, 96 h, read-out: 1b IC50 (nM), genotype 1b replicon cells, 96 hours incubation, NS3/4A ELISA; for pIC50: read-out: 1b IC50, genotype 1b replicon cells, 96 hours incubation, NS3/4A ELISA. The class given is cell-based, hepatitis C virus. As to the method:
as §1, §2

pIC50: −log10 of the molar value. Where two headings read alike, the source gives them in different places.

With `CNC(=O)c1c(-c2ccc(C(C)C)nc2)oc2cc(N(C)S(C)(=O)=O)c(-c3ccc4c(n3)-c3cc5c(F)cccc5n3CC4)cc12` [Example 11], the results for the IC50 in the test on HCV genotype 1a replicon and with HCV genotype 1b replicon were 2120 nM and 661 nM, respectively.
On to `CNC(=O)c1c(-c2ccc(F)cc2)oc2cc(N(C)S(C)(=O)=O)c(-c3ccc4c(n3)-c3cc5c(F)cccc5n3C(CN3CCC3)C4)cc12` (centres unmarked) [Example 92], for which the values for the IC50 with HCV genotype 1a replicon and in the test with HCV genotype 1b replicon were 46.5 nM and 2.55 nM, respectively.
Regarding `CNC(=O)c1c(-c2cnn(-c3ccccc3)c2)oc2cc(N(C)S(C)(=O)=O)c(-c3ccc4c(n3)-c3cc5c(F)cccc5n3CC4)cc12` [Example 18], the IC50 with HCV genotype 1a replicon amounted to 5480 nM; in the test with HCV genotype 1b replicon it was 296 nM.
`CNC(=O)c1c(-c2ccc(C3CC3)nc2)oc2cc(N(C)S(C)(=O)=O)c(-c3ccc4c(n3)-c3cc5c(F)cccc5n3CC4)cc12` [Example 6]: the IC50 worked out at 16.8 nM in the test on HCV genotype 1a replicon and 10.2 nM with HCV genotype 1b replicon.
On to `CCc1ccc(-c2oc3cc(N(C)S(C)(=O)=O)c(-c4ccc5c(n4)-c4cc6c(F)cccc6n4CC5)cc3c2C(=O)NC)cn1` [Example 9], for which the IC50 with HCV genotype 1a replicon turned out to be 38.2 nM; with HCV genotype 1b replicon, 31.2 nM.
In the case of `CNC(=O)c1c(-n2cc(C(F)(F)F)cn2)oc2cc(N(C)S(C)(=O)=O)c(-c3ccc4c(n3)-c3cc5c(F)cccc5n3CC4)cc12` [Example 33], the IC50 in the test with HCV genotype 1a replicon came to 170 nM; with HCV genotype 1b replicon, 23.6 nM.
As for `CNC(=O)c1c(-c2ccc(F)cc2)oc2cc(N(C)S(C)(=O)=O)c(-c3ccc4c(n3)-c3cc5c(F)cccc5n3C(CN3CC[C@@H](F)C3)C4)cc12` (some centres unmarked) [Example 94], the IC50 stood at 34 nM with HCV genotype 1a replicon and 10.8 nM with HCV genotype 1b replicon.
As a reminder, the pIC50 is −log10 of the IC50, conventionally taken in molar units. In the case of `CNC(=O)c1c(-c2ccc(F)cc2)oc2cc(N(C)S(C)(=O)=O)c(-c3ccc4c(n3)-c3cc5c(F)cccc5n3C(CS(C)(=O)=O)C4)cc12` (single isomer, unassigned) [Example 56, (R or S)-5-(11-fluoro-6-((methylsulfonyl)methyl)-5,6-dihydroindolo[1,2-h][1,7]naphthyridin-2-yl)-2-(4-fluorophenyl)-N-methyl-6-(N-methylmethylsulfonamido)benzofuran-3-carboxamide], the negative logarithm of the IC50 (pIC50) with HCV genotype 1a replicon was 8.47. Besides, the IC50 in the test with HCV genotype 1b replicon is 2 nM.
As to `CNC(=O)c1c(-c2ccc(F)cc2)oc2cc(N(C)S(C)(=O)=O)c(-c3ccc4ccn5c6ccc(OC)nc6cc5c4n3)cc12` [Example 80], the IC50 in the test with HCV genotype 1a replicon came out at 27.7 nM; with HCV genotype 1b replicon it was 9.77 nM.
Regarding `CNC(=O)c1c(-c2ccc(F)cc2)oc2cc(N(C)S(C)(=O)=O)c(-c3cnc4c(c3)-c3cc5c(F)cccc5n3CC4)cc12` [Example 43, 5-(11-fluoro-5,6-dihydroindolo[2,1-f][1,6]naphthyridin-2-yl)-2-(4-fluorophenyl)-N-methyl-6-(N-methylmethylsulfonamido)benzofuran-3-carboxamide], the IC50 stood at 1.74 nM with HCV genotype 1a replicon and 3.7 nM with HCV genotype 1b replicon.
For `CNC(=O)c1c(-c2ccc(F)cc2)nn2cc(N(C)S(C)(=O)=O)c(-c3ccc4c(n3)-c3cc5c(F)cccc5n3CC4)cc12` [Example 46, 5-(11-fluoro-5,6-dihydroindolo[1,2-h][1,7]naphthyridin-2-yl)-2-(4-fluorophenyl)-N-methyl-6-(N-methylmethylsulfonamido)pyrazolo[1,5-a]pyridine-3-carboxamide], the IC50 amounted to 2.23 nM in the test with HCV genotype 1a replicon and 2.4 nM with HCV genotype 1b replicon.
`CNC(=O)c1c(-c2ccc(F)cc2F)oc2cc(N(C)S(C)(=O)=O)c(-c3ccc4c(n3)-c3cc5c(F)cccc5n3C(CS(C)(=O)=O)C4)cc12` (centres unmarked) [Example 58]: the pIC50 in the test on HCV genotype 1a replicon was 8.82. The IC50 in the test with HCV genotype 1b replicon came to 1.71 nM.
Consider `CNC(=O)c1c(-c2ccc(C(F)F)cc2)oc2cc(N(C)S(C)(=O)=O)c(-c3ccc4c(n3)-c3cc5c(F)cccc5n3CC4)cc12` [Example 29, 2-(4-(difluoromethyl)phenyl)-5-(11-fluoro-5,6-dihydroindolo[1,2-h][1,7]naphthyridin-2-yl)-N-methyl-6-(N-methylmethylsulfonamido)benzofuran-3-carboxamide], for which the values for the IC50 in the test on HCV genotype 1a replicon and in the test with HCV genotype 1b replicon were 13.5 nM and 15.5 nM, respectively.
Take `CNC(=O)c1c(-c2ccc(F)cc2F)oc2cc(N(C)S(C)(=O)=O)c(-c3ccc4c(n3)-c3cc5c(F)cccc5n3C(CS(C)(=O)=O)C4)cc12` (centres unmarked) [Example 59]: the pIC50 was 8.26 in the test on HCV genotype 1a replicon and 8.54 in the test with HCV genotype 1b replicon.
In the case of `CNC(=O)c1c(-c2ccc(F)cc2)oc2cc(N(C)S(C)(=O)=O)c(-c3ccc4c(n3)-c3cc5c(F)cccc5n3C(CO)C4)cc12` (centres unmarked) [Example 54], the results for the pIC50 in the test on HCV genotype 1a replicon and in the test with HCV genotype 1b replicon were 8.81 and 8.65, respectively.
Consider `CNC(=O)c1c(-c2ccc(F)cc2)oc2nc(N(C)S(C)(=O)=O)c(-c3ccc4c(n3)-c3cc5c(F)cccc5n3CC4)cc12` [Example 45, 5-(11-fluoro-5,6-dihydroindolo[1,2-h][1,7]naphthyridin-2-yl)-2-(4-fluorophenyl)-N-methyl-6-(N-methylmethylsulfonamido)furo[2,3-b]pyridine-3-carboxamide], for which the IC50 was determined as 4.29 nM in the test with HCV genotype 1a replicon and 8.72 nM with HCV genotype 1b replicon.
`CNC(=O)c1c(-c2ccc(F)cc2F)oc2cc(N(C)S(C)(=O)=O)c(-c3ccc4c(n3)-c3cc5c(F)cccc5n3CC4)cc12` [Example 30, 2-(2,4-difluorophenyl)-5-(11-fluoro-5,6-dihydroindolo[1,2-h][1,7]naphthyridin-2-yl)-N-methyl-6-(N-methylmethylsulfonamido)benzofuran-3-carboxamide]: the IC50 was found to be 2.49 nM in the test with HCV genotype 1a replicon and 3.81 nM in the test with HCV genotype 1b replicon.
On to `CCn1cc(-c2oc3cc(N(C)S(C)(=O)=O)c(-c4ccc5c(n4)-c4cc6c(F)cccc6n4CC5)cc3c2C(=O)NC)cn1` [Example 27], for which the figures for the IC50 in the test on HCV genotype 1a replicon and with HCV genotype 1b replicon were 9.13 nM and 11.1 nM, respectively.
On to `CNC(=O)c1c(-c2ccc(F)cc2)oc2cc(N(C)S(C)(=O)=O)c(-c3ccc4c(n3)-c3cc5c(F)cccc5n3C(CO)C4)cc12` (centres unmarked) [Example 52], for which, in the test on HCV genotype 1a replicon, the pIC50 was 8.48. Besides, the IC50 in the test with HCV genotype 1b replicon stood at 2.32 nM.
Consider `CNC(=O)c1c(-c2ccc(F)cc2)oc2cc(N(C)S(C)(=O)=O)c(-c3ccc4c(n3)-c3cc5c(F)cccc5n3C(CF)C4)cc12` (centres unmarked) [Example 96, 5-(11-fluoro-6-(fluoromethyl)-5,6-dihydroindolo[1,2-h][1,7]naphthyridin-2-yl)-2-(4-fluorophenyl)-N-methyl-6-(N-methylmethylsulfonamido)benzofuran-3-carboxamide], for which the IC50 was determined as 7.89 nM in the test on HCV genotype 1a replicon and 3.18 nM with HCV genotype 1b replicon.
On to `CNC(=O)c1c(-c2ccc(F)cc2)oc2cc(N(C)S(C)(=O)=O)c(-c3cc4c(cn3)CC(C)n3c-4cc4c(F)cccc43)cc12` (single isomer, unassigned) [Example 42, (S or R)-5-(11-fluoro-6-methyl-5,6-dihydroindolo[2,1-a][2,6]naphthyridin-2-yl)-2-(4-fluorophenyl)-N-methyl-6-(N-methylmethylsulfonamido)benzofuran-3-carboxamide], for which the values for the pIC50 with HCV genotype 1a replicon and in the test with HCV genotype 1b replicon were 8.51 and 8.26, respectively.
Regarding `CNC(=O)c1c(-c2ccc(F)cc2F)oc2cc(N(C)S(C)(=O)=O)c(-c3ccc4ccn5c6cccc(F)c6cc5c4n3)cc12` [Example 84], the IC50 in the test on HCV genotype 1a replicon was 4.28 nM; in the test with HCV genotype 1b replicon, 6.41 nM.
For `CNC(=O)c1c(-c2ccc(F)cc2)oc2cc(N(C)S(C)(=O)=O)c(-c3ccc4c(n3)-c3cc5c(F)cccc5n3C4)cc12` [Example 88, 5-(10-fluoro-5H-pyrido[2′,3′:3,4]pyrrolo[1,2-a]indol-2-yl)-2-(4-fluorophenyl)-N-methyl-6-(N-methylmethylsulfonamido)benzofuran-3-carboxamide], the IC50 in the test with HCV genotype 1a replicon worked out at 8.73 nM; in the test with HCV genotype 1b replicon, 9.43 nM.
As for `CNC(=O)c1c(-c2ccc(F)cc2)oc2cc(N(C)S(C)(=O)=O)c(-c3cc4c(cn3)CCn3c-4cc4c(F)cccc43)cc12` [Example 39, 5-(11-fluoro-5,6-dihydroindolo[2,1-a][2,6]naphthyridin-2-yl)-2-(4-fluorophenyl)-N-methyl-6-(N-methylmethylsulfonamido)benzofuran-3-carboxamide], the IC50 in the test on HCV genotype 1a replicon was determined as 2.71 nM; with HCV genotype 1b replicon, 2.83 nM.
Regarding `CNC(=O)c1c(-c2ccc(F)cc2)oc2cc(N(C)S(C)(=O)=O)c(-c3ccc4c(n3)-c3cc5c(F)cccc5n3C4O)cc12` (centres unmarked) [Example 87, 5-(10-fluoro-5-hydroxy-5H-pyrido[2′,3′:3,4]pyrrolo[1,2-a]indol-2-yl)-2-(4-fluorophenyl)-N-methyl-6-(N-methylmethylsulfonamido)benzofuran-3-carboxamide], the IC50 was 7.69 nM in the test with HCV genotype 1a replicon and 7.29 nM in the test on HCV genotype 1b replicon.

These data come from patent US9243002B2, “Tetracyclic heterocycle compounds and methods of use thereof for the treatment of hepatitis C” (priority 2013, dated 2016).
